Data published in patent publication US12054497B2, “Substituted heterocyclic fused cyclic compound, preparation method therefor and pharmaceutical use thereof” (GENFLEET THERAPEUTICS (SHANGHAI) INC., priority 2019, dated 2024).
Read-outs that look alike come from different tables or passages of the source.

Key:
KRas G12C = KRas G12C (Homo sapiens (Human), UniProt P01116, G12C); assay: Nucleotide exchange assay (NEA)-HTRF, SOS1 catalyzed displacement of GDP by GTP (Test Example 4); assay type: biochemical
Sequence of KRas G12C (P01116-2 other isoform, or with tags, fused parts or gaps G12C): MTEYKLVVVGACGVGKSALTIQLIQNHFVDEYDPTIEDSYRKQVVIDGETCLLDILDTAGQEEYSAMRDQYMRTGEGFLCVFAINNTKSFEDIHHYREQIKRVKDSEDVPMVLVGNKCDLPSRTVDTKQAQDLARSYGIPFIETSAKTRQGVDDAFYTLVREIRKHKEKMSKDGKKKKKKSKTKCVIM
Procedure: The effects of compounds on SOS1 catalyzed displacement of GDP by GTP on KRas proteins was examined by homogeneous time-resolved fluorescence (HTRF). 30 μM 6×his labeled KRas G12C recombinant protein and 80 μM fluorochrome DY647 labeled GDP were co-incubated in a labeling buffer (1 mM DTT, 7.5 mM EDTA, 25 mM Tris-HCl, 45 mM NaCl) at 20° C. away from light for 2 hours. Protein quantification was performed after purification on the NAP-5 column to determine the concentration of KRas G12C-GDP.
1000× stock solutions of compounds at a concentration gradient of 3.16 were prepared by using DMSO, and diluted 250 times by a reaction buffer (40 mM N-2-hydroxyethylpiperazine-N-2-ethane sulfonic acid (HEPES), 10 mM MgCl2, 1 mM DTT, 0.002% Triton X-100) into 4× stock solutions of compounds. KRas G12C-GDP/Tb working solution (40 nM KRas G12C-GDP, 1×anti-his Tb) and SOS1/GTP working solution (0.2 μM SOS1, 200 μM GTP) were prepared by using the reaction buffer.
5 μl of 4×stock solution of a compound and 10 μl of KRas G12C-GDP/T working solution were added to each well of 96-well plate with white unclear bottom, and 5 μl of reaction buffer was added to the well of control group in stead of the 4×stock solution of a compound. After incubation at 20° C. away from light for 15 minutes, 5 μl of SOS1/GTP working solution was added and incubated at 20° C. away from light for 2 hours, and then a value of fluorescence intensity was read (excitation wavelength: 320 nm, and emission wavelengths: 615 nm and 665 nm). Besides, group TO was established with 10 μl of the reaction buffer and 10 μl of the KRas G12C-GDP/Tb working solution, and the value of fluorescence intensity was directly read. A relative light unit (RLU) was calculated by the following equation: RLU=(665 nm signal/615 nm signal)×10^4; and the inhibition rate (IR) of the compound was calculated by the following equation: IR (%)=(RLUcompound−RLUcontrol)/(RLUT0−RLUcontrol)×100%. The value of IC50 was calculated by fitting a gradiently diluted concentration of the compound and the corresponding cell proliferation inhibition rate using a four-parameter method.

[1] = system: phosphorylated ERK in MIA PaCa2 cells with Kras G12C mutation; assay: p-ERK HTRF assay for cells (Test Example 2); assay type: cell-based, human
Summary of the method: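 MIA PaCa2 cells (2.5E4/well, seeded overnight) treated 2 h with compound in a 3.16-fold series at 0.1% DMSO. Cells lysed 30 min; p-ERK read by HTRF after 4 h antibody incubation. Inhibition relative to DMSO and blank; IC50 by four-parameter fit.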

[2] = system: MIA PaCa-2 cells with Kras G12C mutation; assay: Cell proliferation inhibition experiment, 3D spheroid, CellTiter-Glo (Test Example 3); assay type: cell-based, human; settings: 5 days, read-out: MIA-PaCa2 IC50
Summary of the method: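 MIA PaCa-2 spheroids (200 cells/well) were formed overnight, then exposed for 5 days to compounds in 3.16-fold dilutions at 0.1% DMSO. Viability was read by CellTiter-Glo luminescence, and inhibition was normalised to DMSO control and medium blank. IC50 came from a four-parameter fit.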

[3] = system: NCI-H358 cells with Kras G12C mutation; assay: Cell proliferation inhibition experiment, 3D spheroid, CellTiter-Glo (Test Example 1); assay type: cell-based, human; settings: 5 days
Summary of the method: (§1)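 NCI-H358 (800 cells/well) and A549 (400 cells/well) grown overnight as 3D spheroids in 2% FBS medium, then exposed to compound dilution series (3.16-fold, 0.1% DMSO) for 5 days. CellTiter-Glo luminescence read; inhibition relative to DMSO and blank, IC50 by four-parameter fit.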

[4] = system: A549 cells with Kras G12S mutation; assay: as above; assay type: cell-based, human; settings: 5 days
Summary of the method: as §1

[5] = Homo sapiens, MIA PaCa-2, 2 h, read-out: p-ERK IC50, MIA PaCa2 cells, 2 hours with compound
[6] = Homo sapiens, MIA PaCa-2, 2 h, MIA PaCa2 cells, 2 hours with compound, read-out: p-ERK IC50
[7] = Homo sapiens, MIA PaCa-2, 120 h
[8] = MIA PaCa2 cells, 2 hours with compound, read-out: p-ERK IC50

Row | SMILES | IC50 (KRas G12C) [nM] | IC50 [1, 5] [nM] | IC50 ([2]; Homo sapiens, 120 h) [nM] | IC50 [3] [nM] | IC50 [4] [nM] | IC50 [1, 6] [nM] | IC50 [2, 7] [nM] | IC50 ([3]; Homo sapiens, NCI-H358, 120 h) [nM] | IC50 ([4]; Homo sapiens, A549, 120 h) [nM] | IC50 [1, 8] [nM] | IC50 [2] [nM]
1 | [2H]C([2H])([2H])N1C(=O)[C@H]2CN(C(=O)C=C)CCN2c2c1c(=O)n(-c1c(C)ccnc1C(C)C)c1nc(-c3c(O)cccc3F)c(Cl)cc21 [Compound Z26, (4aR)-3-acryloyl-11-chloro-10-(2-fluoro-6-hydroxyphenyl)-8-(2-isopropyl-4-methylpyridin-3-yl)-6-(methyl-d3)-2,3,4,4a,6,8-hexahydro-1H-pyrazino[1′,2′:4,5]pyrazino[2,3-c][1,8]naphthyridin-5,7-dione] | 34 | 39 | 5 | 2 | 12900 | – | – | – | – | – | –
2 | C=CC(=O)N1C[C@@H]2C(=O)N(C)c3c(c4cc(C5CC5)c(-c5c(O)cccc5F)nc4n(-c4c(C)ccnc4C(C)C)c3=O)N2C[C@H]1C [Compound Z31, (2R,4aR)-3-acryloyl-11-cyclopropyl-10-(2-fluoro-6-hydroxyphenyl)-8-(2-isopropyl-4-methylpyridin-3-yl)-2,6-dimethyl-2,3,4,4a,6,8-hexahydro-1H-pyrazino[1′,2′:4,5]pyrazino[2,3-c][1,8]naphthyridin-5,7-dione] | 151 | – | – | – | – | 206 | 59 | 17 | 9490 | – | –
3 | C=CC(=O)N1CCN2c3c(c(=O)n(-c4c(C)ccnc4C(C)C)c4nc(-c5c(O)cccc5F)c(F)cc34)OC[C@H]2C1 (single isomer, unassigned) [Compound Z1-1] | 152 | – | – | 31 | 10700 | 512 | 95 | – | – | – | –
4 | C=CC(=O)N1C[C@@H]2C(=O)N(C)c3c(c4cc(Cl)c(-c5c(O)cccc5F)c(F)c4n(-c4c(C(C)C)ncnc4C(C)C)c3=O)N2C[C@H]1C (single isomer, unassigned) [Compound Z50-1] | 8 | – | – | 0.3 | > 30000 | – | 1 | – | – | 6 | –
5 | C=CC(=O)N1C[C@@H]2C(=O)N(C)c3c(c4cc(Cl)c(-c5c(O)cccc5F)c(F)c4n(-c4c(C(C)C)ncnc4C(C)C)c3=O)N2C[C@H]1C [Compound Z50] | 19 | – | – | – | – | 7 | 2 | 0.5 | 28300 | – | –
6 | C=CC(=O)N1CCN2c3c(c(=O)n(-c4c(C)ccnc4C(C)C)c4nc(-c5c(O)cccc5F)c(Cl)cc34)N(C)C(=O)[C@H]2C1 [Compound Z25, (4aR)-3-acryloyl-11-chloro-10-(2-fluoro-6-hydroxyphenyl)-8-(2-isopropyl-4-methylpyridin-3-yl)-6-methyl-2,3,4,4a,6,8-hexahydro-1H-pyrazino[1′,2′:4,5]pyrazino[2,3-c][1,8]naphthyridin-5,7-dione] | 60 | 51 | 8 | – | – | – | – | 4 | 28300 | – | –
7 | C=CC(=O)N1CCN2c3c(c(=O)n(-c4c(C)ncnc4C(C)C)c4nc(-c5c(O)cccc5F)c(F)cc34)N(C)C(=O)[C@H]2C1 [Compound Z21, (4aR)-3-acryloyl-11-fluoro-10-(2-fluoro-6-hydroxyphenyl)-8-(4-isopropyl-6-methylpyrimidin-5-yl)-6-methyl-2,3,4,4a,6,8-hexahydro-1H-pyrazino[1′,2′:4,5]pyrazino[2,3-c][1,8]naphthyridin-5,7-dione] | 388 | – | – | – | – | 271 | 47 | 23 | > 30000 | – | –
8 | C=CC(=O)N1CCN2c3c(c(=O)n(-c4c(C)ncnc4C(C)C)c4nc(-c5c(O)cccc5F)c(F)cc34)N(C)C(=O)[C@H]2C1 (single isomer, unassigned) [Compound Z21-1] | 172 | – | – | 27 | > 30000 | – | – | – | – | 428 | 46
9 | C=CC(=O)N1C[C@@H]2C(=O)N(C)c3c(c4cc(Cl)c(-c5c(O)cccc5F)nc4n(-c4c(C)ccnc4C(C)C)c3=O)N2C[C@H]1C (single isomer, unassigned) [Compound Z27-1] | 198 | – | – | 12 | – | – | – | – | 12700 | 157 | –
10 | C=CC(=O)N1C[C@@H]2C(=O)N(C)c3c(c4cc(Cl)c(-c5c(O)cccc5F)nc4n(-c4c(C)ccnc4C(C)C)c3=O)N2C[C@H]1C [Compound Z27, (2R,4aR)-3-acryloyl-11-chloro-10-(2-fluoro-6-hydroxyphenyl)-8-(2-isopropyl-4-methylpyridin-3-yl)-2,6-dimethyl-2,3,4,4a,6,8-hexahydro-1H-pyrazino[1′,2′:4,5]pyrazino[2,3-c][1,8]naphthyridin-5,7-dione] | 27 | – | – | – | – | 29 | 4 | 2 | 10100 | – | –
11 | C=CC(=O)N1C[C@@H]2C(=O)N(C)c3c(c4cc(F)c(-c5c(O)cccc5F)nc4n(-c4c(C)cnn4C(C)C)c3=O)N2C[C@H]1C (single isomer, unassigned) [Compound Z33-1] | 515 | – | – | 74 | > 30000 | – | 92 | – | – | – | –
12 | C=CC(=O)N1C[C@@H]2C(=O)N(C)c3c(c4cc(F)c(-c5c(O)cccc5F)nc4n(-c4c(C#N)cccc4C(C)C)c3=O)N2C[C@H]1C (atropisomer, axis not shown) [Compound Z38-1, 2-((2R,4aR)-3-acryloyl-11-fluoro-10-(2-fluoro-6-hydroxyphenyl)-2,6-dimethyl-5,7-dioxo-2,3,4,4a,5,6-hexahydro-1H-pyrazino[1′,2′:4,5]pyrazino[2,3-c][1,8]naphthyridin-8(7H)-yl)-3-isopropylbenzonitrile] | 53 | – | – | 7 | > 30000 | – | – | – | – | 212 | 27
13 | C=CC(=O)N1C[C@@H]2C(=O)N(C)c3c(c4cc(F)c(-c5c(O)cccc5F)nc4n(-c4c(C)ccnc4C(C)C)c3=O)N2C[C@H]1C (single isomer, unassigned) [Compound Z10-1] | 708 | – | – | 70 | > 10000 | – | – | – | – | 460 | –
14 | C=CC(=O)N1CCN2c3c(c(=O)n(-c4c(C)ccnc4C(C)C)c4nc(-c5c(O)cccc5F)c(Cl)cc34)NC(=O)[C@H]2C1 (single isomer, unassigned) [Compound Z24-1] | 291 | – | – | 28 | > 30000 | – | – | – | – | 536 | –
15 | C=CC(=O)N1C[C@@H]2C(=O)N(C)c3c(c4cc(Cl)c(-c5c(O)cccc5F)c(F)c4n(-c4c(C(C)C)ncnc4C(C)C)c3=O)N2C[C@H]1C (single isomer, unassigned) [Compound Z50-2] | 1450 | – | – | 320 | 3870 | – | – | – | – | 316 | –
16 | C=CC(=O)N1C[C@@H]2C(=O)N(C)c3c(c4cc(F)c(-c5c(O)cccc5F)nc4n(-c4c(C)ccnc4C(C)C)c3=O)N2C[C@H]1C [Compound Z10, (2R,4aR)-3-acryloyl-11-fluoro-10-(2-fluoro-6-hydroxyphenyl)-8-(2-isopropyl-4-methylpyridin-3-yl)-2,6-dimethyl-2,3,4,4a,6-hexahydro-1H-pyrazino[1′,2′:4,5]pyrazino[2,3-c][1,8,8]naphthyridin-5-dione] | 67 | – | – | – | – | 75 | – | 8 | 12100 | – | –
